Experimental data taken from patent US5475022A, “Phenyl or heteroaryl and tetrahydronaphthyl substituted diene compounds having retinoid like biological activity” (Allergan, Inc., priority 1993, dated 1995).
Read-outs that look alike come from different tables or passages of the source.

Tests used:
[1] = system: ornithine decarboxylase (ODC); assay: inhibition of TPA induction of ornithine decarboxylase (ODC); format: cell-based; conditions: read-out: % ODC Inhibition at 1.0 μM concentration
From the text: The retinoid-like activity of these compounds is confirmed through the classic measure of retinoic acid activity involving the effects of retinoic acid on ornithine decarboxylase. The original work on the correlation between retinoic acid and decrease in cell proliferation was done by Verma & Boutwell, Cancer Research, 1977, 37,2196-2201. That reference discloses that ornithine decarboxylase (ODC) activity increased precedent to polyamine biosynthesis. It has been established elsewhere that increases in polyamine synthesis can be correlated or associated with cellular proliferation. Thus, if ODC activity could be inhibited, cell hyperproliferation could be modulated. Although all causes for ODC activity increases are unknown, it is known that 12-0-tetradecanoylphorbol-13-acetate (TPA) induces ODC activity.

[2] = system: ornithine decarboxylase (ODC); conditions: literature statement; cited from earlier work

## COC(=O)c1ccoc1/C=C/C=C(\C)c1cc2c(cc1C)C(C)(C)CCC2(C)C [Compound 1, Methyl 2-[4-methyl-4-(3,5,5,8,8-pentamethyl-5,6,7,8-tetrahydronaphthalene)-2-yl-1E,3E-butadien-1-yl]-furan-3-carboxylate]
[1]; TPA-induced ODC activity
  inhibition at 1 µM: 37%

## COC(=O)c1ccoc1/C=C/C=C(/C)c1cc2c(cc1C)C(C)(C)CCC2(C)C [Compound 2, Methyl 2-[4-methyl-4-(3,5,5,8,8-pentamethyl-5,6,7,8-tetrahydronaphthalene)-2-yl-1E,3Z-butadien-1-yl]-furan-3-carboxylate]
[1]; TPA-induced ODC activity
  inhibition at 1 µM: 36%

## COC(=O)c1ccccc1/C=C/C=C(\C)c1ccc2c(c1)C(C)(C)CCC2(C)C [Compound 6, Methyl 2-[4-methyl-4-(5,5,8,8-tetramethyl-5,6,7,8-tetrahydronaphthalene)-2-yl-1E,3E-butadien-1-yl]benzoate]
[1]; value determined by linear regression of data collected at 30, 100, 300 nanomolar concentrations
  inhibition at 1 µM: 100%

## C/C(=C\C=C\c1ccccc1C(=O)O)c1cc2c(cc1C)C(C)(C)CCC2(C)C [Compound 7, 2-[4-Methyl-4-(3,5,5,8,8-pentamethyl-5,6,7,8-tetrahydronaphthalene)-2-yl-1E,3E-butadien-1-yl]benzoic acid]
[1]; TPA-induced ODC activity
  inhibition at 1 µM: 79%

## C/C(=C/C=C/c1ccccc1C(=O)O)c1cc2c(cc1C)C(C)(C)CCC2(C)C [Compound 8, 2-[4-Methyl4-(3,5,5,8,8-pentamethyl-5,6,7,8-tetrahydronaphthalene)-2-yl-1E,3Z-butadien-1-yl]benzoic acid]
[1]; TPA-induced ODC activity
  inhibition at 1 µM: 75%

## C/C(=C/C=C/c1occc1C(=O)O)c1cc2c(cc1C)C(C)(C)CCC2(C)C [Compound 9, 2-[4-Methyl-4-(3,5,5,8,8-pentamethyl-5,6,7,8-tetrahydronaphthalene)-2-yl-1E,3Z-butadien-1-yl]-furan-3-carboxylic acid]
[1]; TPA-induced ODC activity
  inhibition at 1 µM: 56%

## COC(=O)c1ccoc1/C=C/C=C(\C)c1ccc2c(c1)C(C)(C)CCC2(C)C [Compound 11, Methyl 2-[4-methyl-4-(5,5,8,8,-tetramethyl5,6,7,8,-tetrahydronaphthalen)-2-yl-1E,3E-butadien-1-yl] furan 3-carboxylate]
[1]; TPA-induced ODC activity
  inhibition at 1 µM: 26%

## COC(=O)c1ccoc1/C=C/C=C(/C)c1ccc2c(c1)C(C)(C)CCC2(C)C [Compound 12, Methyl 2-[4-methyl-4-(5,5,8,8, -tetramethyl-5,6,7,8, -tetrahydronaphthalen)2-yl-1E, 3Z-butadien-1-yl] furan 3-carboxylate]
[1]; TPA-induced ODC activity
  inhibition at 1 µM: 42%

## C/C(=C\C=C\c1occc1C(=O)O)c1ccc2c(c1)C(C)(C)CCC2(C)C [Compound 13, 2-[4-Methyl-4-(5,5,8,8,-tetramethyl-5,6,7,8,-tetrahydronaphthalen)-2-yl-1E,3E-butadien-1-yl] furan 3-carboxylic acid]
[1]; TPA-induced ODC activity
  inhibition at 1 µM: 60%

## C/C(=C/C=C/c1occc1C(=O)O)c1ccc2c(c1)C(C)(C)CCC2(C)C [Compound 14, 2-[4-Methyl-4-(5,5,8,8,-tetramethyl-5,6,7,8-tetrahydronaphthalen)-2-yl-1E,3Z-butadien-1-yl] furan 3-carboxylic acid]
[1]; TPA-induced ODC activity
  inhibition at 1 µM: 72%

## C/C(=C\C=C\c1ccsc1C(=O)O)c1cc2c(cc1C)C(C)(C)CCC2(C)C [Compound 17, 3-[4-Methyl-4-(3,5,5,8,8,-pentamethyl-5,6,7,8,-tetrahydronaphthalen)-2-yl-1E,3 E-butadien-1-yl]thiophene 2-carboxylic acid]
[1]; TPA-induced ODC activity
  inhibition at 1 µM: 79%

## CCOC(=O)c1occc1/C=C\C=C(/C)c1cc2c(cc1C)C(C)(C)CCC2(C)C [Compound 19, Ethyl 3-[4-methyl-4-(3,5,5,8,8-pentamethyl-5,6,7,8-tetrahydronaphthalene)-2-yl-1Z, 3E-butadiene-1-yl]-2-furanoate]
[1]; TPA-induced ODC activity
  inhibition at 1 µM: 73%

## COC(=O)c1ccccc1/C=C/C=C(\C)c1cc2c(cc1C)C(C)(C)CCC2(C)C [Compound 24, Methyl 2-[4-methyl-4-(3,5,5,8,8-pentametyl-5,6,7,8-tetrahydronaphthalene)-2-yl-1E,3E-butadien-1-yl]benzoate]
[1]; TPA-induced ODC activity
  inhibition at 1 µM: 88%

## CC1=C(/C=C/C(C)=C/C=C/C(C)=C/C(=O)O)C(C)(C)CCC1 [Retinoic acid]
[2]
  inhibition of induction of ODC activity by TPA: inhibits this induction of ODC activity by TPA
